From patent US20230017045A1, “PYRIDINE AND PYRIMIDINE CARBOXYLATE HERBICIDES AND METHODS OF USE THEREOF” (Dow AgroSciences LLC, priority 2017, published 2023)

The compounds below were run on test plant species (assay: Post-emergent herbicidal activity test (greenhouse, foliar spray, visual growth reduction)). Conditions: post-emergence, 336 h, ECHCG: barnyardgrass (Echinochloa crus-galli), 140 g ai/ha, 14 days after application, read-out: Visual Growth Reduction (%) 14 Days After Application, ECHCG.
Assay type: in vivo
Summary of the method: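 Scoring used a 0 to 100 percent visual scale of growth reduction against solvent-treated controls, read 14 d after spraying. Applications went onto plants at first or second true leaf stage, 187 L/ha, with crop oil concentrate and X-77 surfactant in the carrier. Post-treatment watering was by subirrigation to avoid wash-off.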
With `COC(=O)c1nc(-c2ccc(SC)cc2)c(F)cc1Cl` [F248, Methyl 3-chloro-5-fluoro-6-(4-(methylthio)phenyl) picolinate] the pest or weed control at 140 g/ha was 0 to 29%.
In the case of `COC(=O)c1nc(-c2cc3nonc3cc2Cl)ccc1Cl` [F261, Methyl 3-chloro-6-(6-chlorobenzo[c][1,2,5]oxadiazol-5-yl)picolinate], the pest or weed control at 140 g/ha is reported as 0 to 29%.
Work on `COC(=O)c1nc(-c2ccc(N)cc2F)c(F)cc1Cl` [F348, Methyl 6-(4-amino-2-fluorophenyl)-3-chloro-5-fluoropicolinate] yielded a pest or weed control at 140 g/ha of 0 to 29%.

Same assay, conditions: post-emergence, 336 h, IPOHE: ivy-leaf morning glory (Ipomoea hederacea), 140 g ai/ha, 14 days after application, read-out: Visual Growth Reduction (%) 14 Days After Application, IPOHE
With `COC(=O)c1nc(-c2ccc(SC)cc2)c(F)cc1Cl` [F248, Methyl 3-chloro-5-fluoro-6-(4-(methylthio)phenyl) picolinate] the pest or weed control at 140 g/ha was 30 to 44%.
In the case of `COC(=O)c1nc(-c2cc3nonc3cc2Cl)ccc1Cl` [F261, Methyl 3-chloro-6-(6-chlorobenzo[c][1,2,5]oxadiazol-5-yl)picolinate], the pest or weed control at 140 g/ha is reported as 75 to 84%.
Compound `COC(=O)c1nc(-c2ccc(N)cc2F)c(F)cc1Cl` [F348, Methyl 6-(4-amino-2-fluorophenyl)-3-chloro-5-fluoropicolinate] has a pest or weed control at 140 g/ha of 0 to 29%.

Same assay, conditions: post-emergence, 336 h, KCHSC: kochia (Bassia scoparia), 140 g ai/ha, 14 days after application, read-out: Visual Growth Reduction (%) 14 Days After Application, KCHSC
`COC(=O)c1nc(-c2ccc(SC)cc2)c(F)cc1Cl` [F248, Methyl 3-chloro-5-fluoro-6-(4-(methylthio)phenyl) picolinate] gave a pest or weed control at 140 g/ha of 0 to 29%.
Work on `COC(=O)c1nc(-c2cc3nonc3cc2Cl)ccc1Cl` [F261, Methyl 3-chloro-6-(6-chlorobenzo[c][1,2,5]oxadiazol-5-yl)picolinate] yielded a pest or weed control at 140 g/ha of 0 to 29%.
With `COC(=O)c1nc(-c2ccc(N)cc2F)c(F)cc1Cl` [F348, Methyl 6-(4-amino-2-fluorophenyl)-3-chloro-5-fluoropicolinate] the pest or weed control at 140 g/ha was 0 to 29%.

Same assay, conditions: post-emergence, 336 h, ORYSA: rice (Oryza sativa), 140 g ai/ha, 14 days after application, read-out: Visual Growth Reduction (%) 14 Days After Application, ORYSA
With `COC(=O)c1nc(-c2ccc(SC)cc2)c(F)cc1Cl` [F248, Methyl 3-chloro-5-fluoro-6-(4-(methylthio)phenyl) picolinate] the pest or weed control at 140 g/ha was 0 to 29%.
With `COC(=O)c1nc(-c2cc3nonc3cc2Cl)ccc1Cl` [F261, Methyl 3-chloro-6-(6-chlorobenzo[c][1,2,5]oxadiazol-5-yl)picolinate] the pest or weed control at 140 g/ha was 0 to 29%.
`COC(=O)c1nc(-c2ccc(N)cc2F)c(F)cc1Cl` [F348, Methyl 6-(4-amino-2-fluorophenyl)-3-chloro-5-fluoropicolinate] showed a pest or weed control at 140 g/ha of 0 to 29%.

Same assay, conditions: post-emergence, 336 h, SETFA: giant foxtail (Setaria faberi), 140 g ai/ha, 14 days after application, read-out: Visual Growth Reduction (%) 14 Days After Application, SETFA
`COC(=O)c1nc(-c2ccc(SC)cc2)c(F)cc1Cl` [F248, Methyl 3-chloro-5-fluoro-6-(4-(methylthio)phenyl) picolinate] gave a pest or weed control at 140 g/ha of 0 to 29%.
For `COC(=O)c1nc(-c2cc3nonc3cc2Cl)ccc1Cl` [F261, Methyl 3-chloro-6-(6-chlorobenzo[c][1,2,5]oxadiazol-5-yl)picolinate], the pest or weed control at 140 g/ha was 0 to 29%.
`COC(=O)c1nc(-c2ccc(N)cc2F)c(F)cc1Cl` [F348, Methyl 6-(4-amino-2-fluorophenyl)-3-chloro-5-fluoropicolinate] gave a pest or weed control at 140 g/ha of 0 to 29%.

Same assay, conditions: post-emergence, 336 h, SORVU: grain sorghum (Sorghum vulgare), 140 g ai/ha, 14 days after application, read-out: Visual Growth Reduction (%) 14 Days After Application, SORVU
Work on `COC(=O)c1nc(-c2ccc(SC)cc2)c(F)cc1Cl` [F248, Methyl 3-chloro-5-fluoro-6-(4-(methylthio)phenyl) picolinate] yielded a pest or weed control at 140 g/ha of 0 to 29%.
`COC(=O)c1nc(-c2cc3nonc3cc2Cl)ccc1Cl` [F261, Methyl 3-chloro-6-(6-chlorobenzo[c][1,2,5]oxadiazol-5-yl)picolinate] was tested, and the pest or weed control at 140 g/ha was 0 to 29%.
Work on `COC(=O)c1nc(-c2ccc(N)cc2F)c(F)cc1Cl` [F348, Methyl 6-(4-amino-2-fluorophenyl)-3-chloro-5-fluoropicolinate] yielded a pest or weed control at 140 g/ha of 0 to 29%.

Same assay, conditions: post-emergence, 336 h, STEME: common chickweed (Stellaria media), 140 g ai/ha, 14 days after application, read-out: Visual Growth Reduction (%) 14 Days After Application, STEME
Work on `COC(=O)c1nc(-c2ccc(SC)cc2)c(F)cc1Cl` [F248, Methyl 3-chloro-5-fluoro-6-(4-(methylthio)phenyl) picolinate] yielded a pest or weed control at 140 g/ha of 0 to 29%.
In the case of `COC(=O)c1nc(-c2cc3nonc3cc2Cl)ccc1Cl` [F261, Methyl 3-chloro-6-(6-chlorobenzo[c][1,2,5]oxadiazol-5-yl)picolinate], the pest or weed control at 140 g/ha is reported as 0 to 29%.
For `COC(=O)c1nc(-c2ccc(N)cc2F)c(F)cc1Cl` [F348, Methyl 6-(4-amino-2-fluorophenyl)-3-chloro-5-fluoropicolinate], the pest or weed control at 140 g/ha was 0 to 29%.

Same assay, conditions: post-emergence, 336 h, TRZAS: wheat, spring (Triticum aestivum), 140 g ai/ha, 14 days after application, read-out: Visual Growth Reduction (%) 14 Days After Application, TRZAS
`COC(=O)c1nc(-c2ccc(SC)cc2)c(F)cc1Cl` [F248, Methyl 3-chloro-5-fluoro-6-(4-(methylthio)phenyl) picolinate] showed a pest or weed control at 140 g/ha of 0 to 29%.
Compound `COC(=O)c1nc(-c2cc3nonc3cc2Cl)ccc1Cl` [F261, Methyl 3-chloro-6-(6-chlorobenzo[c][1,2,5]oxadiazol-5-yl)picolinate] has a pest or weed control at 140 g/ha of 0 to 29%.
With `COC(=O)c1nc(-c2ccc(N)cc2F)c(F)cc1Cl` [F348, Methyl 6-(4-amino-2-fluorophenyl)-3-chloro-5-fluoropicolinate] the pest or weed control at 140 g/ha was 0 to 29%.

Same assay, conditions: post-emergence, 336 h, blackgrass (Alopecurus myosuroides), 14 Days After Application, 140 g ai/ha, read-out: Visual Growth Reduction (%) ALOMY
With `COC(=O)c1nc(-c2ccc(SC)cc2)c(F)cc1Cl` [F248, Methyl 3-chloro-5-fluoro-6-(4-(methylthio)phenyl) picolinate] the pest or weed control at 140 g/ha was 0 to 29%.
In the case of `COC(=O)c1nc(-c2cc3nonc3cc2Cl)ccc1Cl` [F261, Methyl 3-chloro-6-(6-chlorobenzo[c][1,2,5]oxadiazol-5-yl)picolinate], the pest or weed control at 140 g/ha is reported as 0 to 29%.
With `COC(=O)c1nc(-c2ccc(N)cc2F)c(F)cc1Cl` [F348, Methyl 6-(4-amino-2-fluorophenyl)-3-chloro-5-fluoropicolinate] the pest or weed control at 140 g/ha was 0 to 29%.

Same assay, conditions: post-emergence, 336 h, canada thistle (Cirsium arvense), 14 Days After Application, 140 g ai/ha, read-out: Visual Growth Reduction (%) CIRAR
Work on `COC(=O)c1nc(-c2ccc(SC)cc2)c(F)cc1Cl` [F248, Methyl 3-chloro-5-fluoro-6-(4-(methylthio)phenyl) picolinate] yielded a pest or weed control at 140 g/ha of 0 to 29%.
For `COC(=O)c1nc(-c2cc3nonc3cc2Cl)ccc1Cl` [F261, Methyl 3-chloro-6-(6-chlorobenzo[c][1,2,5]oxadiazol-5-yl)picolinate], the pest or weed control at 140 g/ha was 30 to 44%.

Same assay, conditions: post-emergence, 336 h, crabgrass (Digitaria sanguinalis), 14 Days After Application, 140 g ai/ha, read-out: Visual Growth Reduction (%) DIGSA
`COC(=O)c1nc(-c2ccc(SC)cc2)c(F)cc1Cl` [F248, Methyl 3-chloro-5-fluoro-6-(4-(methylthio)phenyl) picolinate] showed a pest or weed control at 140 g/ha of 60 to 74%.
`COC(=O)c1nc(-c2cc3nonc3cc2Cl)ccc1Cl` [F261, Methyl 3-chloro-6-(6-chlorobenzo[c][1,2,5]oxadiazol-5-yl)picolinate] showed a pest or weed control at 140 g/ha of 60 to 74%.
Work on `COC(=O)c1nc(-c2ccc(N)cc2F)c(F)cc1Cl` [F348, Methyl 6-(4-amino-2-fluorophenyl)-3-chloro-5-fluoropicolinate] yielded a pest or weed control at 140 g/ha of 0 to 29%.

Same assay, conditions: post-emergence, 336 h, lambsquarters (Chenopodium album), 14 Days After Application, 140 g ai/ha, read-out: Visual Growth Reduction (%) CHEAL
In the case of `COC(=O)c1nc(-c2ccc(SC)cc2)c(F)cc1Cl` [F248, Methyl 3-chloro-5-fluoro-6-(4-(methylthio)phenyl) picolinate], the pest or weed control at 140 g/ha is reported as 0 to 29%.
For `COC(=O)c1nc(-c2cc3nonc3cc2Cl)ccc1Cl` [F261, Methyl 3-chloro-6-(6-chlorobenzo[c][1,2,5]oxadiazol-5-yl)picolinate], the pest or weed control at 140 g/ha was 60 to 74%.
For `COC(=O)c1nc(-c2ccc(N)cc2F)c(F)cc1Cl` [F348, Methyl 6-(4-amino-2-fluorophenyl)-3-chloro-5-fluoropicolinate], the pest or weed control at 140 g/ha was 0 to 29%.

Same assay, conditions: post-emergence, 336 h, redroot pigweed (Amaranthus retroflexus), 14 Days After Application, 140 g ai/ha, read-out: Visual Growth Reduction (%) AMARE
For `COC(=O)c1nc(-c2ccc(SC)cc2)c(F)cc1Cl` [F248, Methyl 3-chloro-5-fluoro-6-(4-(methylthio)phenyl) picolinate], the pest or weed control at 140 g/ha was 0 to 29%.
`COC(=O)c1nc(-c2cc3nonc3cc2Cl)ccc1Cl` [F261, Methyl 3-chloro-6-(6-chlorobenzo[c][1,2,5]oxadiazol-5-yl)picolinate] showed a pest or weed control at 140 g/ha of 0 to 29%.
In the case of `COC(=O)c1nc(-c2ccc(N)cc2F)c(F)cc1Cl` [F348, Methyl 6-(4-amino-2-fluorophenyl)-3-chloro-5-fluoropicolinate], the pest or weed control at 140 g/ha is reported as 0 to 29%.

Same assay, conditions: post-emergence, 336 h, wild oat (Avena fatua), 14 Days After Application, 140 g ai/ha, read-out: Visual Growth Reduction (%) AVEFA
In the case of `COC(=O)c1nc(-c2ccc(SC)cc2)c(F)cc1Cl` [F248, Methyl 3-chloro-5-fluoro-6-(4-(methylthio)phenyl) picolinate], the pest or weed control at 140 g/ha is reported as 0 to 29%.
`COC(=O)c1nc(-c2cc3nonc3cc2Cl)ccc1Cl` [F261, Methyl 3-chloro-6-(6-chlorobenzo[c][1,2,5]oxadiazol-5-yl)picolinate] showed a pest or weed control at 140 g/ha of 0 to 29%.
Work on `COC(=O)c1nc(-c2ccc(N)cc2F)c(F)cc1Cl` [F348, Methyl 6-(4-amino-2-fluorophenyl)-3-chloro-5-fluoropicolinate] yielded a pest or weed control at 140 g/ha of 0 to 29%.

Same assay, conditions: post-emergence, 336 h, yellow nutsedge (Cyperus esculentus), 14 Days After Application, 140 g ai/ha, read-out: Visual Growth Reduction (%) CYPES
Work on `COC(=O)c1nc(-c2ccc(SC)cc2)c(F)cc1Cl` [F248, Methyl 3-chloro-5-fluoro-6-(4-(methylthio)phenyl) picolinate] yielded a pest or weed control at 140 g/ha of 0 to 29%.
With `COC(=O)c1nc(-c2cc3nonc3cc2Cl)ccc1Cl` [F261, Methyl 3-chloro-6-(6-chlorobenzo[c][1,2,5]oxadiazol-5-yl)picolinate] the pest or weed control at 140 g/ha was 0 to 29%.
In the case of `COC(=O)c1nc(-c2ccc(N)cc2F)c(F)cc1Cl` [F348, Methyl 6-(4-amino-2-fluorophenyl)-3-chloro-5-fluoropicolinate], the pest or weed control at 140 g/ha is reported as 0 to 29%.
